Results published in ChEMBL document CHEMBL1909540, “Synthesis and antimycobacterial evaluation of 3a,4-dihydro-3H-indeno [1,2-c] pyrazole-2-carboxamide analogues” (Eur J Med Chem, 2011).
In brackets after ≈: the same amount, converted by molar mass.

System: Mycobacterium tuberculosis
Test: Antitubercular activity against multidrug-resistant Mycobacterium tuberculosis by two fold serial dilution method
Assay type: functional

Q: With COc1cc2c(cc1OC)C1=NN(C(=O)Nc3ccc([N+](=O)[O-])cc3)C(c3ccncc3)C1C2 (stereo not given) as the compound, how does the MIC read?
A: > 13.6 µM

Q: With COc1cc2c(cc1OC)C1=NN(C(=O)Nc3ccc(Cl)cc3)C(c3ccncc3)C1C2 (stereo not given) as the compound, how does the MIC read?
A: 10 µM (≈ 4.49 µg/mL)

Q: Which MIC does the source give for COc1cc2c(cc1OC)C1=NN(C(=O)Nc3ccc(Cl)cc3)C(c3ccccc3Cl)C1C2 (stereo not given) here?
A: > 13.9 µM

Q: Which MIC does the source give for COc1cc2c(cc1OC)C1=NN(C(=O)Nc3ccc(Cl)cc3)C(c3ccc(F)cc3)C1C2 (stereo not given) here?
A: 3.32 µM (≈ 1.55 µg/mL)

Q: Which MIC does the source give for COc1ccc(C2C3Cc4cc(OC)c(OC)cc4C3=NN2C(=O)Nc2ccc(Cl)cc2)cc1OC (stereo not given) here?
A: > 9.8 µM

Q: Which MIC does the source give for COc1cc2c(cc1OC)C1=NN(C(=O)Nc3ccc(Cl)cc3)C(c3ccccc3)C1C2 (stereo not given) here?
A: 10.5 µM (≈ 4.69 µg/mL)

Q: With COc1ccc(C2C3Cc4cc(OC)c(OC)cc4C3=NN2C(=O)Nc2ccc(Cl)cc2)cc1 (stereo not given) as the compound, how does the MIC read?
A: > 10.5 µM

Q: Which MIC does the source give for COc1cc2c(cc1OC)C1=NN(C(=O)Nc3ccc([N+](=O)[O-])cc3)C(c3ccccc3Cl)C1C2 (stereo not given) here?
A: > 12.7 µM

Q: With COc1cc2c(cc1OC)C1=NN(C(=O)Nc3ccc([N+](=O)[O-])cc3)C(c3ccc(F)cc3)C1C2 (stereo not given) as the compound, how does the MIC read?
A: 6.32 µM (≈ 3.01 µg/mL)

Q: For COc1ccc(C2C3Cc4cc(OC)c(OC)cc4C3=NN2C(=O)Nc2ccc([N+](=O)[O-])cc2)cc1OC (stereo not given), which MIC is on record?
A: > 12.1 µM

Q: Which MIC does the source give for COc1cc2c(cc1OC)C1=NN(C(=O)Nc3ccc([N+](=O)[O-])cc3)C(c3ccccc3)C1C2 (stereo not given) here?
A: 13.6 µM (≈ 6.24 µg/mL)

Q: With COc1ccc(C2C3Cc4cc(OC)c(OC)cc4C3=NN2C(=O)Nc2ccc([N+](=O)[O-])cc2)cc1 (stereo not given) as the compound, how does the MIC read?
A: > 12.8 µM

Q: Which MIC does the source give for COc1cc2c(cc1OC)C1=NN(C(N)=O)C(c3ccncc3)C1C2 (stereo not given) here?
A: > 11.8 µM

Q: For COc1cc2c(cc1OC)C1=NN(C(N)=O)C(c3ccccc3Cl)C1C2 (stereo not given), which MIC is on record?
A: > 10.8 µM

Q: For COc1cc2c(cc1OC)C1=NN(C(N)=O)C(c3ccc(F)cc3)C1C2 (stereo not given), which MIC is on record?
A: 6.62 µM (≈ 2.35 µg/mL)

Q: Which MIC does the source give for COc1ccc(C2C3Cc4cc(OC)c(OC)cc4C3=NN2C(N)=O)cc1OC (stereo not given) here?
A: > 10.1 µM

Q: Which MIC does the source give for COc1cc2c(cc1OC)C1=NN(C(N)=O)C(c3ccccc3)C1C2 (stereo not given) here?
A: > 11.8 µM

Q: For COc1ccc(C2C3Cc4cc(OC)c(OC)cc4C3=NN2C(N)=O)cc1 (stereo not given), which MIC is on record?
A: > 10.9 µM

Q: With NNC(=O)c1ccncc1 [ISONIAZID] as the compound, how does the MIC read?
A: 45.6 µM (≈ 6.25 µg/mL)

System: not listed separately
Test: Safety index, ratio of IC50 for african green monkey Vero cells to MIC for multidrug-resistant Mycobacterium tuberculosis
Assay type: toxicity, cell-based

Q: Which selectivity ratio does the source give for COc1cc2c(cc1OC)C1=NN(C(=O)Nc3ccc(Cl)cc3)C(c3ccc(F)cc3)C1C2 (stereo not given) here?
A: 40.3
